These results are taken from paper PMC5551549 (Endocrinology, 2017).

“Also recorded” adds a separate entry of the source.

In experiment [1] the test system is CHO-K1-GCGR cells + RAMP2. Briefly: Ca^2+ response to ATP (control), RAMP2-expressing CHO-K1-GCGR cells. The experiment is classed as cell-based, Chinese hamster. The note with it: mean ± SEM; P = 0.77 vs control cells. The method, then:
(§1) Cells, plated overnight onto 96-well plates at 50,000 cells/well, were incubated in 75 µL Ca NW^PLUS working reagent for 1 hour at 37°C. […] Fluorescence signal was measured from 5 seconds before to 30 seconds after injection of agonist. The Ca^2+ response was expressed as a percentage of the adenosine triphosphate response (1 µM).

Experiment [2] relates to CHO-K1-GCGR cells. Nature of the experiment: Ca^2+ response to ATP (control), CHO-K1-GCGR cells. Format: cell-based, Chinese hamster. The note with it: mean ± SEM; P = 0.77 vs RAMP2-expressing cells. The method, then:
as §1

Experiment [3] concerns CHO-K1-GCGR cells + RAMP2. Nature of the experiment: cAMP response to forskolin (control), RAMP2-expressing CHO-K1-GCGR cells. Format: cell-based, Chinese hamster. The note with it: mean ± SEM; P = 0.20 vs control cells. The method, then: (§2) CHO-K1 cells overexpressing the human GCGR (with or without RAMP2), plated onto 48-well plates at 40,000 cells/well, were incubated in serum-free media for 1 hour. Peptides were prepared in serum-free DMEM containing 100 µM of IBMX (3-isobutyl-1-methylxanthine; Sigma-Aldrich, United Kingdom). The cells were incubated for 30 minutes with the test peptide, after which media were replaced with 110 µL lysis buffer (0.1M HCl with 0.5% Triton-X). The lysate was assayed by using a direct cyclic adenosine monophosphate ELISA kit (Enzo Life Sciences, United Kingdom), as described in the assay manual. The cyclic adenosine monophosphate (cAMP) response was corrected for well protein levels (Bradford reagent; Sigma-Aldrich) and expressed as a percentage of response to 10 µM forskolin.

The subject of experiment [4] is CHO-K1-GCGR cells. Nature of the experiment: cAMP response to forskolin (control), CHO-K1-GCGR cells. The experiment is classed as cell-based, Chinese hamster. The conditions noted are these: mean ± SEM; P = 0.20 vs RAMP2-expressing cells. The method, then: as §2
Experiment [5] deals with human GCGR coexpressed with RAMP2. Nature of the experiment: PathHunter β-arrestin recruitment, CHO-K1-βArr-GCGR cells with RAMP2. The conditions noted are these: 90 min, 37°C; PathHunter β-galactosidase complementation; minimum of four separate experiments; Emax P < 0.0001 with vs without RAMP2. Format: cell-based. For orientation: Activated receptors often draw arrestin, which recruitment assays turn into a signal.
From the text: PathHunter CHO-K1 GCGR β-Arrestin GPCR assay (DiscoveRx Corporation Ltd.) was used to determine the effect of RAMP2 on the potency of GCGR ligands for recruitment of β-arrestin-1 to the GCGR. The CHO-K1-βArr-GCGR cells are engineered to detect the interaction of β-arrestin with the activated GCGR using β-galactosidase fragment complementation. CHO-K1-βArr-GCGR cells were stably transfected with or without RAMP2, as described previously. […] Fifty-five microliters of the PathHunter detection reagents was added to each well, and the microplate was incubated at room temperature for 60 minutes.

Regarding `Nc1ncnc2c1ncn2[C@@H]1O[C@H](COP(=O)(O)OP(=O)(O)OP(=O)(O)O)[C@@H](O)[C@H]1O` [ATP, adenosine triphosphate], the “Ca^2+ response to ATP, RAMP2-expressing cells” value in experiment [1] was 1.84 ± 0.10 relative fluorescence unit fold increase from baseline. Also, in the experiment with CHO-K1-GCGR cells [2], the “Ca^2+ response to ATP, control cells” value was 1.81 ± 0.08 relative fluorescence unit fold increase from baseline. Turning to `C=C[C@@]1(C)CC(=O)[C@]2(O)[C@@]3(C)[C@@H](O)CCC(C)(C)[C@@H]3[C@H](O)[C@H](OC(C)=O)[C@@]2(C)O1` [forskolin], the “cAMP response to forskolin, RAMP2-expressing cells” value in experiment [3] came to 0.140 ± 0.01 relative absorbance units. Also, the “cAMP response to forskolin, control cells” value with CHO-K1-GCGR cells [4] is 0.136 ± 0.01 relative absorbance units. With `CC[C@H](C)[C@H](NC(=O)[C@H](Cc1ccccc1)NC(=O)[C@H](CCC(=O)O)NC(=O)[C@H](CCCCN)NC(=O)[C@H](C)NC(=O)[C@H](C)NC(=O)[C@H](CCC(N)=O)NC(=O)CNC(=O)[C@H](CCC(=O)O)NC(=O)[C@H](CC(C)C)NC(=O)[C@H](Cc1ccc(O)cc1)NC(=O)[C@H](CO)NC(=O)[C@H](CO)NC(=O)[C@@H](NC(=O)[C@H](CC(=O)O)NC(=O)[C@H](CO)NC(=O)[C@@H](NC(=O)[C@H](Cc1ccccc1)NC(=O)[C@@H](NC(=O)CNC(=O)[C@H](CCC(=O)O)NC(=O)[C@H](C)NC(=O)[C@@H](N)Cc1c[nH]cn1)[C@@H](C)O)[C@@H](C)O)C(C)C)C(=O)N[C@@H](C)C(=O)N[C@@H](Cc1c[nH]c2ccccc12)C(=O)N[C@@H](CC(C)C)C(=O)N[C@H](C(=O)N[C@@H](CCCCN)C(=O)NCC(=O)N[C@@H](CCCNC(=N)N)C(N)=O)C(C)C` [GLP-1], in experiment [5], the “β-arrestin recruitment in cells expressing both GCGR and RAMP2” value is given as “did not occur; also recorded: completely abolished”.
